Structures can show the parent of a compound that is named as a salt.
Legend:
[1] = target: T1, Rat brain protein farnesyltransferase (Rattus norvegicus, UniProt Q02293+Q04631); experiment: In vitro inhibition of protein farnesyltransferase, Amersham scintillation proximity assay with biotin-K Ras B fragment; format: biochemical; details: Inhibition of farnesyltransferase; for inhibition at 1 µM: compound at 1 × 10^−6 M (Table 2), read-out: % inhibition at 1 × 10^−6 M; for inhibition at 10 µM: compound at 1 × 10^−5 M (Table 1)
T1 construct: The enzyme is purified according to Reiss, Y., et al., Cell, 62: 81-88 (1990), utilizing steps one through three; from tissue; host or cells: rat brain

[2] = test system: geranylgeranyltransferase I; experiment: Inhibition of geranylgeranyltransferase I (glass fiber filter binding assay, H-Ras-CVLL, 3H-GGPP); format: biochemical, bovine; details: for Activity: % inhibition at 1 × 10^−6 M: compound at 1 × 10^−6 M (Table 5); for Activity: % inhibition at 1 × 10^−7 M: compound at 1 × 10^−7 M (Table 5); for Activity: % inhibition at 1 × 10^−5 M: compound at 1 × 10^−5 M (Table 5)
From the text: The ability of the compounds of the invention to inhibit protein farnesyltransferase or protein geranylgeranyltransferase can be measured according to the method of Moores, et al., J. Biol. Chem. 266: 14603 (1991) or the method of Vogt, et al., J. Biol. Chem. 270:660-664 (1995). In addition, procedures for determination of the inhibition of farnesylation of the oncogene protein Ras are described by Goldstein, et al., J. Biol. Chem., 266:15575-15578 (1991) and by Singh in U.S. Pat. No. 5,245,061.
Additional methods for the measurement of in vitro inhibition of protein prenylation (i.e., inhibition of farnesyltransferase or geranylgeranyltransferase) are described below.
Assays are performed using the glass fiber filter binding assay procedure with either rabbit reticulocyte lysate or Frase or GGTase I fractions isolated from bovine brains using a combination of hydrophobic and DEAE column chromatography procedures. Protein substrates are purchased from Panvera Corporation (H-ras for FTase, H-ras-CVLL for GGTase I). Tritium labeled prenyl lipid substrates (FPP or GGPP) are obtained from Amersham Life Science.
^3H-geranylgeranyldiphosphate (final concentration 0.5 μM), H-Ras-CVLL (final concentration 5.0 μM) and the test compound (various final concentrations from a stock solution in 1:1 DMSO/water; final concentration DMSO <2%) were mixed in buffer (50 mM Tris-HCl (pH 7.2), 30 mM MgCl2, 20 mM KCl, 10 μM ZnCl2, 5 mM DTT, 0.01% Triton X-100) to give a final volume of 50 μL. The mixture was brought to 37° C., treated with enzyme, and incubated for 30 minutes. 1 mL of 1 M HCl/ethanol was added to stop the reaction, and the mixture was allowed to stand for 15 minutes at room temperature then diluted with 2 mL of ethanol. The reaction mixture was filtered through a 2.5 cm glass microfiber filter from Whatman and washed with four 2 mL portions of ethanol. The glass filter was transferred to a scintillation vial, and 5 mL scintillation fluid was added. The radioisotope retained on the glass fiber filter was counted to reflect the activity of the enzymes. The IC50 value was calculated by measuring the activity of the enzyme over a suitable range of inhibitor concentrations.

SMILES	inhibition at 1 µM [1]	Activity: % inhibition at 1 × 10^−6 M [2]	further results
CSCC[C@H](NC(=O)c1ccc(COc2cccnc2)cc1Oc1ccccc1)C(=O)O [Example 157, [4-(3-Pyridyloxymethylene)-2-phenoxybenzoyl]methionine]	92%		melting point: 195 °C
Cc1cc(C)cc(-c2cc(NCc3cnc[nH]3)ccc2C(=O)N[C@@H](CC(C)C)C(=O)O)c1 [Example 399]	> 50%	>50% inhibition at 1 × 10^−6 M	
CC(C)C[C@H](NC(=O)c1ccc(NCc2ncc[nH]2)cc1-c1ccccc1)C(=O)O [Example 953, N-[4-(Imidazol-2-ylmethylamino)-2-phenylbenzoyl]leucine]		>50% inhibition at 1 × 10^−6 M	melting point: 156 to 160 °C
CC(C)C[C@H](NC(=O)c1ccc(CNCc2c[nH]cn2)cc1-c1cccc2ccccc12)C(=O)O [Example 955, N-[4-(Imidazol-4-ylmethylaminomethyl)-2-naphth-1-ylbenzoyl]leucine]			Activity: % inhibition at 1 × 10^−7 M [2]: >50% inhibition at 1 × 10^−7 M; inhibition at 10 µM [1]: 50%
CC(C)C[C@H](NC(=O)c1ccc(OCCn2ccnc2)cc1-c1ccccc1)C(=O)O [Example 964, N-[4-(2-Imidazol-1-ylethoxy)-2-phenylbenzoyl]leucine]	> 50%	>50% inhibition at 1 × 10^−6 M	
CC(C)C[C@H](NC(=O)c1ccc(NCc2c[nH]cn2)cc1-c1ccccc1)C(=O)O [Example 967, N-[4-(Imidazol-4-ylmethylamino)-2-phenylbenzoyl]leucine]		>50% inhibition at 1 × 10^−6 M	
CC(C)C[C@H](NC(=O)c1ccc(NCc2ccncc2)cc1-c1cccc2ccccc12)C(=O)O [Example 969, N-[4-(Pyrid-4-ylmethylamino)-2-naphth-1-ylbenzoyl]leucine]			Activity: % inhibition at 1 × 10^−5 M [2]: >50% inhibition at 1 × 10^−5 M
O=C(N[C@@H](CC1CCCCC1)C(=O)O)c1ccc(NCc2c[nH]cn2)cc1-c1cccc2ccccc12 [Example 974, N-[4-(Imidazol-4-ylmethylamino)-2-naphth-1-ylbenzoyl]cyclohexyalanine]			Activity: % inhibition at 1 × 10^−5 M [2]: >50% inhibition at 1 × 10^−5 M; inhibition at 10 µM [1]: > 50%

The next lines start with results.

inhibition at 1 µM [1]	Activity: % inhibition at 1 × 10^−6 M [2]	SMILES	further results
> 50%		Cc1ccccc1-c1cc(NCc2c[nH]cn2)ccc1C(=O)N[C@@H](CC(C)C)C(=O)O [Example 962, N-[4-(Imidazol-4-ylmethylamino)-2-(2-methylphenyl)benzoyl]leucine Hydrochloride]	Activity: % inhibition at 1 × 10^−7 M [2]: >50% inhibition at 1 × 10^−7 M
	>50% inhibition at 1 × 10^−6 M	CC(C)C[C@H](NC(=O)c1ccc(NCc2ncc[nH]2)cc1-c1cccc2ccccc12)C(=O)O [Example 966, N-[4-(Imidazol-2-ylmethylamino)-2-naphth-1-ylbenzoyl]leucine]	

From patent publication US6693123B2 (University of Pittsburgh, priority 1995, dated 2004)
